Test results reported in US4070484A, “Antiallergic composition containing aromatic carboxylic amide derivatives and method of using the same” (Kissei Pharmaceutical Co., Ltd., priority 1973, dated 1978).

Key:
[1] = tested on: homologous passive cutaneous anaphylaxis (antigen-antibody reaction); assay: Homologous Passive Cutaneous Anaphylaxis in Rats; format: in vivo, rat (Wistar male); conditions: 200 mg/kg orally 2 hours prior to the injection of antigen; for inhibition at 200 mg/kg: Rattus norvegicus, po
Procedure: Wistar male rats weighing 120-150 g were used in this experiment. […]. Normal rats were sensitized passively with dilution of the antibody by means of intradermal injection. After 48 hours of the sensitization, the mixture of antigen (EA) and evens blue was injected intravenously. The animals were killed by a blow on the head 30 minutes after the injection, and then the blue spot resulted from the antigen-antibody reaction was measured photometrically.
A given test compound dissolved in 1 % NaHCO3 solution was administrated in a dose of 200 mg/kg orally 2 hours prior to the injection of antigen, while only the vehicle solution was administered to the control group.
The efficacy of the test compounds to inhibit the homologous passive cutaneous anaphlaxis was compared with the value (%) calculated using the following formula: [formula] wherein A stands for the amount of leaked dye in control group and B for the amount of leaked dye in the group administered with a given test compound.

mast cells = conditions: known art; cited from earlier work
[2] = tested on: sensitized mesenteric mast cells; assay: Effect on the Disruption of the Sensitized Mast Cells; format: cell-based, rat; conditions: 10^-5 g/ml, 5 minutes prior to the treatment of antigen
Procedure: Mesenteric mast cells isolated from normal rats were sensitized passively by means of incubation with rat reaginic antibody at 37° C. After termination of the incubation, the specific antigen (DNP-Ascaris) was added to the incubation medium, then these mast cells in mesentery were fixed with formalin and stained with 0.1 % toluidine blue (in acetic acid buffer; pH: 4.6). The number of mast cells disrupted as a consequence of the antigen-antibody reaction were counted under a microscope. The number of the mast cells disrupted were also counted without the addition of the specific antigen.
A given test compound dissolved in 1 % NaHCO3 solution was added to the incubation medium at a concentration of 10^-5 g/ml, 5 minutes prior to the treatment of antigen, while only the vehicle was added to the control group.
The efficacy of the test compounds to inhibit the mast cell disruption was compared with the value (%) calculated using the following formula: [formula] wherein P stands for the percentage of disrupted mast cells in the control group, Q for the percentage of mast cells disrupted spontaneously and R for the percentage of disrupted mast cells in the group treated with a given test compound.

[3] = Acute Toxicity (LD50) in mice; format: in vivo; conditions: mouse, in vivo, po, mortality on the 8th day
Procedure: The median lethal dose (LD50) of the new aromatic carboxylic acid amide derivatives of this invention were determined in dd-stain male and female mice (6 weeks old) by oral administration and in Wistar strain male and female rats (7 weeks old) by oral and intraperitoneal administration. Each animal selected for the experiment was maintained in an air conditioned room at a temperature of 22° ± 1° C and a relative humidity of 55 ± 5% during the full course of the experiment. All animals were fed compressed pellets (CE-2 type produced by Japan CLEA Co.) and water was available ad libitum by bottle. Five groups of ten animals for each administration route were used.
Since these compounds were isoluble in water, they were suspended in a 0.5% aqueous solution of carboxymethylcellulose at each dosage level. The administrative volume of each agent to 10 g body weight mouse was 0.2 ml for oral administration, while that to 100g body weight of rat was 0.5 ml for intraperitoneal and oral administrations.
The LD50 values were calculated from the mortality on the 8th day by the Litchfield-Wilcoxon's method.

[4] = tested on: antiallergic action, oral administration to mammalia; assay: Antiallergic action (general statements); format: in vivo; conditions: general statement

O=C(C=Cc1ccccc1)Nc1cccc(C(=O)O)c1 [3-(cinnamoylamino)-benzoic acid, reference compound]
inhibition at 200 mg/kg [1]: 10%

O=C(C=Cc1ccccc1)Nc1ccc(C(=O)O)cc1 [4-(cinnamoylamino)-benzoic acid, reference compound]
inhibition at 200 mg/kg [1]: 7%

OCC(O)COc1ccc(Cl)cc1 (stereo not drawn) [Chlorphenesin, reference compound]
inhibition of mast cell disruption (in words) (mast cells): inhibitor of mast cell disruption
inhibition at 200 mg/kg [1]: 36.7%

COc1ccc(C(C)=CC(=O)Nc2ccccc2C(=O)O)cc1OC [N-(3',4'-dimethoxy-β-methylcinnamoyl)-anthranilic acid]
inhibition at 200 mg/kg [1]: 66.2%
Inhibition percentage (mast cell disruption) [2]: 45%

O=C(C=Cc1cccc(Cl)c1)Nc1ccccc1C(=O)O [N-(3'-chlorocinnamoyl)-anthranilic acid]
LD50 at 192 h [3]: 700 mg/kg

COc1cc(C=CC(=O)Nc2ccccc2C(=O)O)ccc1OCC(=O)O [N-(3'-methoxy-4'-carboxylmethoxycinnamoyl)-anthranilic acid, reference compound]
inhibition at 200 mg/kg [1]: 0%

COc1cc(C=CC(=O)Nc2ccccc2C(=O)O)ccc1OCC(O)CO (stereo not drawn) [N-[3'-methoxy-4'-(2,3-dihydroxypropoxy)-cinnamoyl]-anthranilic acid, reference compound]
inhibition at 200 mg/kg [1]: 9%

O=C(C=Cc1ccccc1)Nc1ccccc1C(=O)O [N-cinnamoyl-anthranilic acid, reference compound]
inhibition at 200 mg/kg [1]: 16.7%

O=C(C=Cc1ccc(O)cc1)Nc1ccccc1C(=O)O [compound 1, N-(4'-hydroxycinnamoyl)-anthranilic acid]
inhibition at 200 mg/kg [1]: 36.7%

COc1cccc(C=CC(=O)Nc2ccc(C(=O)O)cc2)c1O [compound 6, 4-(2'-hydroxy-3'-methoxycinnamoylamino)-benzoic acid]
inhibition at 200 mg/kg [1]: 33.5%

COc1cccc(C=CC(=O)Nc2cccc(C(=O)O)c2)c1 [compound 15, 3-(3'-methoxycinnamoylamino)-benzoic acid]
inhibition at 200 mg/kg [1]: 45%
Inhibition percentage (mast cell disruption) [2]: 18%

O=C(C=Cc1ccc(Cl)cc1)Nc1ccccc1C(=O)O [compound 20, N-(4'-chlorocinnamoyl)-anthranilic acid]
LD50 at 192 h [3]: 551 mg/kg
inhibition at 200 mg/kg [1]: 69.4%

O=C(C=Cc1ccccc1Cl)Nc1ccccc1C(=O)O [compound 22, N-(2'-chlorocinnamoyl)-anthranilic acid]
LD50 at 192 h [3]: 343 mg/kg
inhibition at 200 mg/kg [1]: 60.2%

O=C(C=Cc1ccc(F)cc1)Nc1ccccc1C(=O)O [compound 28, N-(4'-fluorocinnamoyl)-anthranilic acid]
LD50 at 192 h [3]: 481 mg/kg

O=C(C=Cc1cccc(F)c1)Nc1ccccc1C(=O)O [compound 29, N-(3'-fluorocinnamoyl)-anthranilic acid]
LD50 at 192 h [3]: 551 mg/kg
inhibition at 200 mg/kg [1]: 47.5%

O=C(C=Cc1ccccc1F)Nc1ccccc1C(=O)O [compound 30, N-(2'-fluorocinnamoyl)-anthranilic acid]
LD50 at 192 h [3]: 321 mg/kg

COc1cccc(C=CC(=O)Nc2ccccc2C(=O)O)c1OC [compound 31, N-(2',3'-dimethoxycinnamoyl)-anthranilic acid]
inhibition at 200 mg/kg [1]: 56.8%

Cc1ccc(C=CC(=O)Nc2ccccc2C(=O)O)cc1 [compound 42, N-(4'-methylcinnamoyl)-anthracilic acid]
inhibition at 200 mg/kg [1]: 54%

COc1cc(OC)c(OC)cc1C=CC(=O)Nc1ccccc1C(=O)O [compound 52, N-(2',4',5'-trimethoxycinnamoyl)-anthranilic acid]
inhibition at 200 mg/kg [1]: 56.8%

CCCOc1ccc(C=CC(=O)Nc2ccccc2C(=O)O)cc1OC [compound 54, N-(3'-methoxy-4'-n-propoxycinnamoyl)-anthranilic acid]
inhibition at 200 mg/kg [1]: 52.2%
Inhibition percentage (mast cell disruption) [2]: 37%

COc1cc(C=CC(=O)Nc2ccccc2C(=O)O)ccc1OC(C)C [compound 56, N-(3'-methoxy-4'-isopropoxycinnamoyl)-anthranilic acid]
inhibition at 200 mg/kg [1]: 47.1%

COc1cccc(C=CC(=O)Nc2cccc(C(=O)O)c2)c1OC [compound 60, 3-(2',3'-dimethoxycinnamoylamino)-benzoic acid]
inhibition at 200 mg/kg [1]: 41.1%

COc1ccc(CCC(=O)Nc2ccccc2C(=O)O)cc1OC [compound 67, N-(3',4'-dimethoxylhydrocinnamoyl)-anthranilic acid]
inhibition at 200 mg/kg [1]: 55.4%

Methylenedioxycinnamoylaminobenzoic acid
antiallergic action / pharmacological activity (in words) [4]: strong antiallergic action

N-(4'-bromocinnamoylamino)-benzoic acid
Inhibition (%) [1]: 32.3%

cinnamoylaminobenzoic acid [reference compound]
antiallergic action / pharmacological activity (in words) [4]: only very weak antiallergic effect
